Measurements: ChEMBL document CHEMBL1141648, “Aurora kinase A inhibitors: identification, SAR exploration and molecular modeling of 6,7-dihydro-4H-pyrazolo-[1,5-a]pyrrolo[3,4-d]pyrimidine-5,8-dione scaffold” (Bioorg Med Chem Lett, 2008)

Experiments:
[1] = biological target: T1, Aurora kinase A (Homo sapiens) (UniProt O14965); assay: Inhibition of Aurora A kinase at 50 uM
T1 sequence (whole entry): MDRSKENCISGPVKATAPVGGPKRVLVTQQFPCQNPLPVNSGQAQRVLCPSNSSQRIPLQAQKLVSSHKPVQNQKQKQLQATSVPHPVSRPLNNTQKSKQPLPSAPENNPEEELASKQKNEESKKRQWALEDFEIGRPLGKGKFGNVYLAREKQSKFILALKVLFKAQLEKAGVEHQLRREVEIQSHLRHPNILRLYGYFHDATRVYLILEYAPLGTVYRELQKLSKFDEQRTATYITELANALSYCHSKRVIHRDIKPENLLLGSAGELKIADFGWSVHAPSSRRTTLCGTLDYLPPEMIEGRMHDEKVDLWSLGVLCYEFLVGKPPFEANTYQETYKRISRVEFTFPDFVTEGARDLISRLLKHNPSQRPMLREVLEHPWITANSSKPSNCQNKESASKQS

[2] = biological target: T1, Aurora kinase A (Homo sapiens); assay: Inhibition of Aurora A kinase at 10 uM
Aurora kinase C = biological target: T2, Aurora kinase C (Homo sapiens, UniProt Q9UQB9); assay: Inhibition of Aurora C kinase
T2 sequence (Q9UQB9 whole entry): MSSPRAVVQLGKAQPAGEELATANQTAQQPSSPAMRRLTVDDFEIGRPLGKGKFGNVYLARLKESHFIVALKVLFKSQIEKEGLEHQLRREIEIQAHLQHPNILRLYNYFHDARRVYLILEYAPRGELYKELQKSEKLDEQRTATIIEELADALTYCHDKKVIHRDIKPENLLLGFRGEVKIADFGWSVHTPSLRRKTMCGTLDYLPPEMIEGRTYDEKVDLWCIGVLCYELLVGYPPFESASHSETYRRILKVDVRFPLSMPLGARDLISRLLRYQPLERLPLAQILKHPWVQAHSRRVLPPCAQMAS

Aurora kinase A = biological target: T3, Aurora kinase A (Homo sapiens, UniProt O14965); assay: Inhibition of Aurora A kinase
T3 sequence (O14965 whole entry): T1 sequence (whole entry)

Row | inhibition [1] | inhibition [2] | IC50 (Aurora kinase A) | SMILES | Ki (Aurora kinase C)
1 | 89.8% | 24% | – | O=C1c2[nH]c3cc(-c4ccco4)nn3c(=O)c2CN1Cc1ccc(F)cc1 | –
2 | 1.1% | 0% | – | O=C1c2c(c(=O)n3nc(-c4ccco4)cc3n2CCN2CCOCC2)CN1Cc1ccccc1 | –
3 | – | – | – | CO[C@@H](C(=O)N1Cc2n[nH]c(NC(=O)c3ccc(N4CCN(C)CC4)cc3)c2C1)c1ccccc1 [DANUSERTIB] | 0.061 µM
4 | 95.1% | 51.6% | 5.6 µM | COc1ccccc1CN1Cc2c([nH]c3cc(-c4ccco4)nn3c2=O)C1=O | –
5 | 88.2% | 42.4% | 8 µM | COc1ccc(CN2Cc3c([nH]c4cc(-c5ccco5)nn4c3=O)C2=O)cc1 | –
6 | 73.7% | 7.6% | – | O=C1c2[nH]c3cc(-c4ccco4)nn3c(=O)c2CN1c1ccccc1 | –
7 | 10.7% | 0.9% | – | O=C1c2[nH]c3cc(-c4ccco4)nn3c(=O)c2CN1CCN1CCOCC1 | –
8 | 90% | 29.3% | 15.2 µM | COc1cccc(CN2Cc3c([nH]c4cc(-c5ccco5)nn4c3=O)C2=O)c1 | –
9 | 75.2% | 12.3% | – | O=C1c2[nH]c3cc(-c4ccco4)nn3c(=O)c2CN1Cc1ccc2c(c1)OCO2 | –
10 | 90.2% | 35.6% | 15.1 µM | O=C1c2nc3cc(-c4ccco4)nn3c(O)c2CN1Cc1ccccc1 | –
11 | 87.8% | 35.8% | 18.3 µM | CC(=O)Nc1cccc(CN2Cc3c([nH]c4cc(-c5ccco5)nn4c3=O)C2=O)c1 | –
12 | 79.2% | 21.6% | – | O=C1c2[nH]c3cc(-c4ccco4)nn3c(=O)c2CN1Cc1ccccn1 | –
13 | 83.9% | 19.6% | – | O=C1c2[nH]c3cc(-c4ccco4)nn3c(=O)c2CN1CCc1ccccc1 | –
14 | 14.5% | 1.6% | – | O=C1c2[nH]c3ccnn3c(=O)c2CN1Cc1ccccc1 | –
15 | 70.8% | 7.8% | – | COc1ccc(CN2Cc3c([nH]c4cc(-c5ccco5)nn4c3=O)C2=O)cc1OC | –
16 | 72.3% | 29.4% | – | O=C1c2[nH]c3cc(-c4cccs4)nn3c(=O)c2CN1Cc1ccccc1 | –
17 | 75.3% | 10.1% | – | COc1cc(CN2Cc3c([nH]c4cc(-c5ccco5)nn4c3=O)C2=O)cc(OC)c1 | –
18 | 3.4% | 2.3% | – | Cn1c2c(c(=O)n3nc(-c4ccco4)cc13)CN(Cc1ccccc1)C2=O | –
19 | 84.4% | 16.4% | – | O=C1c2[nH]c3cc(-c4ccco4)nn3c(=O)c2CN1CCCc1ccccc1 | –
20 | 79.9% | 30.4% | – | O=C1c2[nH]c3cc(-c4ccco4)nn3c(=O)c2CN1Cc1cccc2ccccc12 | –
21 | 20.8% | 1.8% | – | Cc1cc2[nH]c3c(c(=O)n2n1)CN(Cc1ccccc1)C3=O | –
22 | 47.2% | 25.9% | – | O=C1c2nc3cc(-c4ccccc4)nn3c(O)c2CN1Cc1ccccc1 | –
